According to patent publication US9228015B2, “Nogo receptor antagonists and methods of increasing neurite outgrowth” (Biogen Idec MA Inc., priority 2006, dated 2016):
Values belong to the molecule of their own block, whether it stands above or below them.

Legend:
[1] = test system: chick dorsal root ganglion neurons, myelin-induced neurite outgrowth inhibition; assay: Neurite outgrowth of embryonic day 13 chick DRG neurons on myelin (Example 29); type: cell-based; conditions: 8 μM NgR(310)ecto-Fc; MP 10 μg/nl as printed
Experimental: In investigating combined treatment with methyprednisolone (MP) and NgR(310)ecto-Fc for spinal cord injury (SCI), we sought to verify that these reagents have independent mechanisms of action. Briefly, myelin was dried overnight in poly-L-lysine-precoated plates (Becton Dickinson, Bedford, Mass., USA) at 80 or 400 ng/well (2.5 and 12.7 ng/mm^2, respectively). Wells were then coated with 10 µg/ml laminin (Calbiochem, La Jolla, Calif., USA) for 1 hour at foom temperature (22-24 C). Embryonic day 13 chick dorsal root ganglion neurons were dissociated and plated for 6-8 hours as previously described (GrandPre et al., 2000; Fournier et al., 2001). Neurons were treated with 8 μM NgR(310)ecto-Fc in the presence or absence of 10 μg/nl MP (Pharmacia, Kalamazoo, Mich., USA) for the entire outgrowth period. Neurons were then fixed and stained with βIII tubulin antibody (Covance, Princeton, N.J., USA) and neurite outgrowth was quantified using an automated cellular imaging and analysis system (Axon Instrument, Union City, Calif.; USA). Neurite outgrowth per cell was normalized to the average of duplicate control wells for each experiment (n=3). […] These in vitro data support the hypothesis that MP and NgR(310)ecto-Fc will enhance SCI recovery in a sequentially effective manner.

7E11 [2] = assay: Epitope mapping: 7E11 binding to protease digest peptides of NgR1; set-up: species or system murine; conditions: trypsin or Asp-N digest, MS analysis
Excerpt: The 7E11 binding site was further analyzed by testing tryptic peptide digests of sNgR310. […] 7E11 bound only a single tryptic digest peptide, providing additional evidence that 7E11 binds to a single epitope on NgR1. Subsequent mass spectroscopy (MS) and sequence analyses identified the bound peptide to be […] (SEQ ID NO: 26).
The […] peptide (SEQ ID NO: 1) was subjected to further mapping analysis. The peptide was digested with trypsin, which yielded two major fragments, […] (SEQ ID NO: 27) and VVDPTT (SEQ ID NO: 28), and the ability of 7E11 to bind them was tested. […] Within this peptide fraction, detailed MS analysis identified several scrambled peptides that also bound 7E11, including peptides with deamination at Asn115 and Gln117, addition of Alanine at 112 or 113, or addition of Serine at 114 (Table 3).
The […] (SEQ ID NO:1) peptide was also digested with the endoprotease Asp-N and 7E11 binding was tested. Endoprotease Asp-N cleaved the peptide into 3 peptide fragments, L, DLS and […] (SEQ ID NO: 36). Of these products, 7E11 bound the […] (SEQ ID NO:36) peptide. Taken together, the trypsin and Asp-N cleavage data further localize the 7E11 binding epitope to the sequence shared between them, DNAQLR (SEQ ID NO: 37).

7E11 [3] = assay: 7E11 binding to immobilized point-mutant peptides (MaxiSorp plate, serial dilutions of 7E11); set-up: species or system murine; conditions: 7E11 binding to immobilized peptide
Excerpt: To verify these contact points, several peptides containing point mutations within the […] sequence (SEQ ID NO: 27) were generated and tested for 7E11 binding. The peptides were immobilized on a MaxiSorp™ plate (Nunc™) and serial dilutions of 7E11 were applied. […] The most significant change in EC50 was observed when Arg 119 was mutated to Alanine.

[4] = molecular target: T1, panel of Nogo receptor-1 polypeptides (sNogoR310-Fc, sNogoR344-Fc, p-617, p-618, p-4, p-5) (Rattus norvegicus, UniProt Q99M75); assay: Antibody specificity ELISA with a panel of Nogo receptor-1 polypeptides; type: binding
T1 construct: made in house
Excerpt: To determine the specificity of the monoclonal and Fab-phage antibodies produced in Examples 1 and 2, we performed an ELISA using a panel of Nogo receptor-1 polypeptides. The panel consisted of sNogoR310-Fc (a fusion protein comprising amino acids 26-310 of rat Nogo receptor-1 and a rat Fc fragment), sNogoR344-Fc (see supra), polypeptide p-617 (SEQ ID NO: 1), polypeptide p-618 (a 19-amino acid polypeptide from the LRR7 region of rat Nogo receptor-1; FIG. 2; SEQ ID NO: 11) and polypeptides p-4 and p-5 (polypeptides from the LRR5 and LRRCT regions of Nogo receptor-1, respectively). Ovalbumin and BSA were used as controls.

[5] = test system: DRG neurons, myelin-mediated inhibition of neurite outgrowth; assay: Neurite outgrowth assay, P3-4 rat DRG neurons, myelin mixed with test protein (Example 10); type: cell-based; conditions: mixed with CNS myelin, FIGS. 9-11
Experimental: Lab-Tek® culture slides (4 wells) were coated with 0.1 mg/ml poly-D-lysine (Sigma®). CNS myelin alone or mixed with sNogoR310, sNogoR310-Fc fusion protein, mAb 5B10 or control PBS were separately spotted as 3 μl drops. Fluorescent microspheres (Polysciences) were added to the myelin/PBS to allow later identification of the drops (Grandpre et al., Nature 403:439-444 (2000)). Lab-Tek® slides were then rinsed and coated with 10 μg/ml laminin (Gibco™).
Dorsal root ganglions (DRG's) from P3-4 Sprague Dawley rat pups were dissociated with 1 mg/ml collagenase type 1 (Worthington), triturated with fire-polished Pasteur pipettes pre-plated to enrich in neuronal cells and finally plated at 23,000 cells/well on the pre-coated Labtek culture slides. The culture medium was F12 containing 5% heat inactivated donor horse serum, 5% heat inactivated fetal bovine serum and 50 ng/ml mNGF and incubated at 37° C. and 5% CO2 for 6 hours.
Slides were fixed for 20 minutes with 4% paraformaldehyde containing 20% sucrose and stained for the neuronal marker anti beta-III-tubulin (Covance TUJ1) diluted 1:500. As secondary antibody anti-mouse Alexa Fluor® 594 (Molecular Probes) was diluted 1:300 and slides were coverslipped with Gel/Mount™ (Biømeda™). 5× digital images were acquired with OpenLab™ software and analyzed by using the MetaMorph® software for quantification of neurite outgrowth.

Nogo66 + sNogoR344-Fc = molecular target: T2, Nogo66 + sNogoR344-Fc (Rattus norvegicus, UniProt Q99M75, A303T/C287S/C43R/E284G/T53A); assay: ELISA: inhibition of Nogo66 binding to sNogoR344-Fc
T2 construct: amino acid residues 26-344 of rat Nogo receptor-1; made in house
T2 sequence (Q99M75 26-344 C43R/T53A/E284G/C287S/A303T): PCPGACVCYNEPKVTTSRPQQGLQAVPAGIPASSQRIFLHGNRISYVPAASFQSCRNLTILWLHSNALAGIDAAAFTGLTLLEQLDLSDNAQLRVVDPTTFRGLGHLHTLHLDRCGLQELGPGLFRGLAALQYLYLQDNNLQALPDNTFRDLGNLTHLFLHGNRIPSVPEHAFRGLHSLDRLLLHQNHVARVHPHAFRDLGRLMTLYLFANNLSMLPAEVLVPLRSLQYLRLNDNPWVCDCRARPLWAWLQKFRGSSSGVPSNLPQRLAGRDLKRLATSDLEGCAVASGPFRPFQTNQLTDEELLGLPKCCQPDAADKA
Experimental: (§1) 0.5 μg of a soluble Nogo receptor-1 fusion protein comprising amino acid residues 26-344 of rat Nogo receptor-1 and the hinge and Fc region of the rat IgG1 molecule (sNogoR344-Fc) produced as described below was immobilized on […] of protein-A- or wheatgerm agglutinin-conjugated SPA beads (Amersham Pharmacia Biotech) for 2 hours at 25° C. SPA beads coupled with Fc-sNogoR-1, anti-Nogo receptor-1 mAb and 1 μl ^125I-Nogo66 (Amersham, 2000 Ci/mmol, 1 nM) in […] of the HEPES-buffered incubation medium (10 mM HEPES, pH 7.4, 0.1% bovine serum albumin, 0.1% ovalbumin, 2 mM MgCl2, 2 mM CaCl2 and protease inhibitors) was added to each sample well. After 16 hours, radioactivity was measured in quadruplicate samples using a TopCount® (Packard). IC50 values were calculated from a curve-fit analysis (FIG. 3) (PRISM, GraphPad Software, NJ). In some experiments, we also used AP-ligand conjugates (e.g. AP-Nogo66) and detected binding by monitoring alkaline phosphatase activity. We also assayed the ability of the mAbs to block binding of the ligands MAG-Fc and AP-OM-gp to Nogo receptor-1.
(§2) Monoclonal antibodies 7E11, 5B10, 1H2, 3G5 and 2F7 all inhibited binding of Nogo66, MAG and OM-gp to sNogoR344-Fc. The calculated IC50 for Nogo66 for 7E11 and 1H2 were 400 nM and 60 nM, respectively. The data from ELISAs monitoring mAb-mediated inhibition of binding of the three ligands to Nogo receptor-1 are summarized in Table 6.
(§3) The percent displacement is shown at 30 nM antibody and the EC50 for certain mAbs determined from curve-fit analysis as described. “-” indicates no detectable activity and “ND” indicates not determined.
(§4) We also performed ELISA binding assays using the Fab-phage 141)5.

MAG + sNogoR344-Fc = molecular target: T3, MAG + sNogoR344-Fc (Rattus norvegicus, UniProt Q99M75, A303T/C287S/C43R/E284G/T53A); assay: ELISA: inhibition of MAG binding to sNogoR344-Fc
T3 construct: amino acid residues 26-344 of rat Nogo receptor-1; made in house; CHO (DG44) is described only for sNogoR310-Fc
T3 sequence (Q99M75 26-344 C43R/T53A/E284G/C287S/A303T): T2 sequence (Q99M75 26-344 C43R/T53A/E284G/C287S/A303T)
Experimental: as §1, §2, §3, §4

OM-gp + sNogoR344-Fc = molecular target: T4, OM-gp + sNogoR344-Fc (Rattus norvegicus, UniProt Q99M75, A303T/C287S/C43R/E284G/T53A); assay: ELISA: inhibition of OM-gp binding to sNogoR344-Fc
T4 construct: amino acid residues 26-344 of rat Nogo receptor-1; made in house; CHO (DG44) is described only for sNogoR310-Fc
T4 sequence (Q99M75 26-344 C43R/T53A/E284G/C287S/A303T): T2 sequence (Q99M75 26-344 C43R/T53A/E284G/C287S/A303T)
Experimental: as §1, §2, §3, §4

[6] = test system: NogoA, NogoB, NogoC, MAG and OM-gp binding to Nogo receptor-1; assay: Soluble Nogo receptors block ligand binding to Nogo receptor-1

Molecule: C[C@H]1C[C@@H]2[C@H]([C@@H](O)C[C@@]3(C)[C@H]2CC[C@]3(O)C(=O)CO)[C@@]2(C)C=CC(=O)C=C12 [MP, methylprednisolone, reference compound]
effect on neurite outgrowth on a myelin substrate [1]: no effect

Molecule: AAAFTGLTLLEQLDLSDNAQLR (Rattus) [tryptic digest peptide of sNgR310]
peptide bound by 7E11 (7E11 [2]): bound

Molecule: LDLSDNAQLHVVDPTT [R119H]
increase of EC50 relative to the original peptide (7E11 [3]): 25 fold

B2: sNogoR344: soluble Nogo receptor-1 polypeptide, residues 26-344 of SEQ ID NOs: 6 and 8 or 27-344 of SEQ ID NO: 8 (protein, listed as Homo sapiens)
chain: PCPGACVCYNEPKVTTSCPQQGLQAVPVGIPAASQRIFLHGNRISHVPAASFRACRNLTILWLHSNVLARIDAAAFTGLALLEQLDLSDNAQLRSVDPATFHGLGRLHTLHLDRCGLQELGPGLFRGLAALQYLYLQDNALQALPDDTFRDLGNLTHLFLHGNRISSVPERAFRGLHSLDRLLLHQNRVAHVHPHAFRDLGRLMTLYLFANNLSALPTEALAPLRALQYLRLNDNPWVCDCRARPLWAWLQKFRGSSSEVPCSLPQRLAGRDLKRLAANDLQGCAVATGPYHPIWTGRATDEEPLGLPKCCQPDAADKA
block of binding of NogoA, NogoB, NogoC, MAG and OM-gp to Nogo receptor-1 [6]: block

More lines, main results first:

peptide bound by 7E11 (7E11 [2]): bound
Molecule: DNAQLRVVDPTT (sequence also found in Rattus; listed as Homo Sapiens)

increase of EC50 relative to the original peptide (7E11 [3]): 30 fold
Molecule: LDLSDNAALRVVDPTT [Q117A]

peptide bound by 7E11 (7E11 [2]): bound
Molecule: LDLSDNAQLR (sequence also found in Rattus; listed as Homo Sapiens)

binding to polypeptide p-617 (SEQ ID NO: 1) [4]: specifically bound | inhibition of binding of Nogo66 to sNogoR344-Fc (Nogo66 + sNogoR344-Fc): inhibited | inhibition of binding of MAG to sNogoR344-Fc (MAG + sNogoR344-Fc): inhibited | inhibition of binding of OM-gp to sNogoR344-Fc (OM-gp + sNogoR344-Fc): inhibited
B1: 5B10: murine monoclonal anti-Nogo receptor-1 antibody, immunogen rat Nogo receptor-1 residues 110-125, ATCC PTA-4588 (antibody, V domains shown)
VH: LQXSGAEIVMPGTAVTMSCKASGYTFTDFWMHWVKQRPGQGLEWIGAIDPSDSYSRINQKFKGKATLTVDESSSTAYMQLSSLTSEDSAVYYCARRITEAGAWFAYWGQGTTVT
VL: MKLPVRLLVLMFWIPASSSDVVMTQTPLSLPVSLGDQASISCRSSQSLVHSNGYTYLHWYLQRPGQSPKLLIYKVSNRFSGVPDRFSGSGSGTDFTLKISRVDAEDLGVYFCSQSTHVPYTFGGGTKLEIKRADAAPTVSISHH
modifications: not fully specified; 5B10 heavy chain; 5B10 light chain
protection of DRG neurons from myelin-mediated inhibition of neurite outgrowth [5]: protected
